In article PMC7995547, “ω‐Imidazolyl‐alkyl derivatives as new preclinical drug candidates for treating non‐alcoholic steatohepatitis” (Physiological Reports, 2021):

Test system: male CD/Crl:CD(SD) rats
Assay: Acute toxicity study, single peroral application, 14‐day observation
Format: in vivo
Conditions: for Ataxia / Chromodacryorrhea / Dyspnoea / Inhibition of body weight gain / Mean body weight gain, After 7 d / Mean body weight, After 7 d / Mortality within 6 h / Mortality within 7 h / Mortality within 14 h / Mortality within 24 h / Necropsy findings / Piloerection / Ptosis / Reduced motility / Reduced muscle tone / Mean body weight gain, End / Mean body weight, End / Mean body weight, Start: p.o., males, n = 5; for Mean body weight gain, End / Mean body weight, End: 14‐day observation; for Mean body weight, Start: before administration
Experimental: In total, 90 male CD®/Crl:CD(SD) rats from Charles River Laboratories, Deutschland GmbH, were used after randomization. Five rats were selected for each concentration of the corresponding experimental substance. […] In addition, a control group was formed with five rats receiving only the HPMC gel.
Feeding was stopped approximately 16 h before the start of test substance application, whereas tap water continued to be available ad libitum. Granulated structural wood was used as bedding material in the cages; the material was changed and the cages were cleaned twice a week. […] The rooms were illuminated (approximately 150 lux from a ceiling height of approximately 1.50 m) and darkened for 12 h in turns.
Each animal was kept under observation, so that any behavior deviating from the norm could be systematically recorded. Observations were made before the peroral application of the respective active substance, immediately after, and 5, 15, 30, and 60 min and 3, 6, and 24 h after the start of application. […] We focused on the changes in the skin and fur, the eyes and mucous membranes, respiration, circulation, the autonomous and central nervous systems, somatomotor activity, and behavior patterns. They were also observed for possible tremors, convulsions, salivation, diarrhea, lethargy, sleep, and coma. Mortality checks were performed at least once a day to minimize the loss of animals during the study. The time of death was recorded as accurately as possible. Individual body weights were recorded before the administration of experimental substances and, subsequently, at weekly intervals, until the end of the study and at death. Weight changes were calculated when survival exceeded 1 day.
At the end of the experiments, all surviving animals were sacrificed, dissected, and examined macroscopically. All notable pathological changes were recorded. A microscopic examination of all organs showing obvious lesions was performed on animals that survived for 24 h or longer. Autopsy and macroscopic inspection of prematurely deceased animals were performed as soon as possible after death.

## CCCCCCCCCCCCn1ccnc1 [I‐an, 1‐imidazolyldodecane]
10 mg/kg b.w.
  Ataxia: None
  Chromodacryorrhea: None
  Dyspnoea: None
  Inhibition of body weight gain: None
  Mean body weight gain, After 7 d: +24.4%
  Mean body weight, After 7 d: 293.2 g
  Mortality within 6 h: 0
  Mortality within 7 h: 0
  Mortality within 14 h: 0
  Mortality within 24 h: 0
  Necropsy findings: None
  Piloerection: None
  Ptosis: None
  Reduced motility: None
  Reduced muscle tone: None
  Mean body weight gain, End: +39.4%
  Mean body weight, End: 328.4 g
  Mean body weight, Start: 235.6 g
50 mg/kg b.w.
  Ataxia: None
  Chromodacryorrhea: None
  Dyspnoea: None
  Inhibition of body weight gain: None
  Mean body weight gain, After 7 d: +26.6%
  Mean body weight, After 7 d: 296.4 g
  Mortality within 6 h: 0
  Mortality within 7 h: 0
  Mortality within 14 h: 0
  Mortality within 24 h: 0
  Necropsy findings: None
  Piloerection: None
  Ptosis: None
  Reduced motility: None
  Reduced muscle tone: None
  Mean body weight gain, End: +40.6%
  Mean body weight, End: 329.2 g
  Mean body weight, Start: 234.2 g
100 mg/kg b.w.
  Ataxia: None
  Chromodacryorrhea: None
  Dyspnoea: None
  Inhibition of body weight gain: None
  Mean body weight gain, After 7 d: +22.0%
  Mean body weight, After 7 d: 283.6 g
  Mortality within 6 h: 0
  Mortality within 7 h: 0
  Mortality within 14 h: 0
  Mortality within 24 h: 0
  Necropsy findings: None
  Piloerection: None
  Ptosis: None
  Reduced motility: None
  Reduced muscle tone: None
  Mean body weight gain, End: +34.2%
  Mean body weight, End: 311.8 g
  Mean body weight, Start: 232.4 g
250 mg/kg b.w.
  Ataxia: None
  Chromodacryorrhea: None
  Dyspnoea: None
  Inhibition of body weight gain: None
  Mean body weight gain, After 7 d: +19.4%
  Mean body weight, After 7 d: 266.2 g
  Mortality within 6 h: 0
  Mortality within 7 h: 0
  Mortality within 14 h: 0
  Mortality within 24 h: 0
  Necropsy findings: None
  Piloerection: None
  Ptosis: None
  Reduced motility: None
  Reduced muscle tone: None
  Mean body weight gain, End: +32.7%
  Mean body weight, End: 296.0 g
  Mean body weight, Start: 223.0 g
250 mg/kg bw
  Toxic signs: None
500 mg/kg b.w.
  Time of premature death: 6 days
  Ataxia: None
  Chromodacryorrhea: None
  Dyspnoea: None
  Inhibition of body weight gain: None
  Mean body weight gain, After 7 d: +21.8%
  Mean body weight, After 7 d: 288.7 g
  Mortality within 6 h: 0
  Mortality within 7 h: 2
  Mortality within 14 h: 2
  Mortality within 24 h: 0
  Necropsy findings: None
  Piloerection: None
  Ptosis: None
  Reduced motility: None
  Reduced muscle tone: None
  Mean body weight gain, End: +38.4%
  Mean body weight, End: 328.0 g
  Mean body weight, Start: 237.0 g
500 mg/kg bw
  Toxic signs: Mortality
1000 mg/kg b.w.
  Time of premature death: 5 days
  Ataxia: None
  Chromodacryorrhea: None
  Dyspnoea: None
  Inhibition of body weight gain: None
  Mean body weight gain, After 7 d: +15.0%
  Mean body weight, After 7 d: 270.3 g
  Mortality within 6 h: 0
  Mortality within 7 h: 1
  Mortality within 14 h: 1
  Mortality within 24 h: 0
  Necropsy findings: None
  Piloerection: None
  Ptosis: None
  Reduced motility: None
  Reduced muscle tone: None
  Mean body weight gain, End: +36.2%
  Mean body weight, End: 320.0 g
  Mean body weight, Start: 235.0 g
1000 mg/kg bw
  Toxic signs: Mortality
All dose groups, 30 rats per substance
  Premature deaths in the acute toxicity study: three
All doses
  Macroscopic necropsy findings: None
rats, single p.o. dose
  Lowest lethal dose: 500 mg/kg bw
  No Observed Adverse Effect Level: 250 mg/kg bw
rats, single p.o. dose, 14 days
  LD50(14 d): >1000 mg/kg bw
